Series [1] concerns SARS-CoV-2. The experiment in a line: microbe, parasite or virus in culture. It is filed as cell-based. The note with it: Severe acute respiratory syndrome coronavirus 2, Vero C1008, 96 h.
A short description of the next series: in vitro. The note with it: African green monkey.
The test system of series [2] is SARS-CoV-2. The following applies: cited from earlier work.
Series [3] relates to Para-Influenza-3 virus, Reovirus, Sindbis virus, Cocsackie B4 virus, Punto Toro virus and Yellow Fever Virus. The following applies: cited from earlier work.
Another series relates to Babesia. The following applies: mice; cited from earlier work.
For series [4], the system named is replicating Mycobacterium tuberculosis. The following applies: cited from earlier work.
The conditions of series [5]: in vivo; cited from earlier work.
For the next series, the system named is Aspergillus flavus. The experiment in a line: Antifungal MIC (RPMI-1640 microdilution). It is filed as cell-based. In general terms: Broth dilution looks for growth in wells or tubes with falling amounts of substance.
The test system of another series is Aspergillus fumigatus. Kind of series: Antifungal MIC (RPMI-1640 microdilution). It counts as cell-based.
The subject of the next series is Exserohilum sp. Kind of series: Antifungal MIC (RPMI-1640 microdilution). It is filed as cell-based. The note with it: read-out: MIC 100% inhibition.
The subject of a further series is Fusarium sp. Kind of series: Antifungal MIC (RPMI-1640 microdilution). It counts as cell-based.
The next series concerns Curvularia sp. Kind of series: Antifungal MIC (RPMI-1640 microdilution). The following applies: read-out: MIC 100% inhibition. It counts as cell-based.
The next series deals with P. variotii. Kind of series: Antifungal MIC (RPMI-1640 microdilution). It counts as cell-based. The following applies: Paecilomyces variotii, read-out: MIC 100% inhibition.
A further series relates to Altenaria sp. Kind of series: Antifungal MIC (RPMI-1640 microdilution). It is filed as cell-based. The note with it: read-out: MIC 100% inhibition.
In series [6] the test system is SARS-CoV-2. The experiment in a line: microbe, parasite or virus in culture. It is filed as cell-based.

These results are taken from patent publication US12691107B2, “Methods for the treatment and prevention of lung infections caused by gram-positive bacteria, fungus, or virus by administration of tafenoquine” (priority 2020, dated 2026).

For orientation: EC50 means the concentration needed to bring the measured effect to its halfway point.

The structures appear in SMILES notation. Values after ≈ are worked out from the molar mass of the structure shown. Like-named read-outs stand apart in the source and are kept apart here.

As to `CCC(CC)COC(=O)[C@H](C)N[P@](=O)(OC[C@H]1O[C@@](C#N)(c2ccc3c(N)ncnn23)[C@H](O)[C@@H]1O)Oc1ccccc1` [Remdesivir], the EC50 in the series on SARS-CoV-2 [1] was 0.7 µM. This molecule also displayed a CC50 in “in vitro” of more than 100 µM.
Turning to `CCN(CC)CCCC(C)Nc1ccnc2cc(Cl)ccc12` (stereo not drawn) [chloroquine], in the series on SARS-CoV-2 [2], the “fold less potent in CALU-3 than in VERO cells” value is on record as 10 fold.
In the case of `COc1cc(NC(C)CCCN)c2ncccc2c1` (stereo not drawn) [Primaquine], the EC50 in [3] was more than 50 µM. For the same molecule, the “dose clearing Babesia parasitemia” value in the series on Babesia is on record as 100 mg/kg. In addition, in series [4], the MIC is recorded as 256 microgram/ml. Besides, in series [5], the half-life result was “approximately 6 hours”.
As to `C[C@@H](c1ncncc1F)[C@](O)(Cn1cncn1)c1ccc(F)cc1F` [Voriconazole], the MIC in the series with Aspergillus flavus (ATCC204304, read-out: MIC 100% inhibition, isolate ATCC 204304) is 1 µg/mL (≈ 2.86 µM); in the series with Aspergillus flavus (read-out: MIC 100% inhibition, isolate Aflav2) it was 2 µg/mL (≈ 5.73 µM); in the series on Aspergillus flavus (read-out: MIC 100% inhibition, isolate Aflav3), 1 µg/mL (≈ 2.86 µM); with Aspergillus fumigatus (read-out: MIC 100% inhibition, isolate AF293), 1 µg/mL (≈ 2.86 µM); with Aspergillus fumigatus (read-out: MIC 100% inhibition, isolate D115-106) it was more than 16 µg/mL; with Aspergillus fumigatus (read-out: MIC 100% inhibition, isolate D115-116) it was 8 µg/mL (≈ 22.9 µM). The MIC was 0.5 µg/mL (≈ 1.43 µM) in the series on Exserohilum sp.; 4 µg/mL (≈ 11.5 µM) in the series on Fusarium sp. (read-out: MIC 100% inhibition, isolate FO1); more than 16 µg/mL in the series with Fusarium sp. (read-out: MIC 100% inhibition, isolate FS2); 8 µg/mL (≈ 22.9 µM) with Fusarium sp. (read-out: MIC 100% inhibition, isolate FSI); 0.5 µg/mL (≈ 1.43 µM) in the series on Curvularia sp.; 0.125 µg/mL (≈ 0.358 µM) in the series on P. variotii. For the same molecule, the MIC in the series with Altenaria sp. worked out at 2 µg/mL (≈ 5.73 µM).
As to `CCN(CCO)CCCC(C)Nc1ccnc2cc(Cl)ccc12` (stereo not drawn) [Hydroxychloroquine], the inhibition at 33 µM in the series on SARS-CoV-2 [1] (33 microM, 4-day assay, read-out: inhibition at the highest non-toxic concentration) was determined as 43%. Further, the EC50 with SARS-CoV-2 [6] (Severe acute respiratory syndrome coronavirus 2, Vero C1008, Vero E6, moi 0.05, 48 hours, TCID50) came to 10.4 µM. Also, in the series on SARS-CoV-2 [6] (calculated relative to the CC50 for the 4-day test), the selectivity index is given as 5.3. In addition, the “fold less potent in CALU-3 than in VERO cells” value in the series with SARS-CoV-2 [2] is 10 fold.
